Laboratory results taken from the NIST ThermoML archive (doi:10.1021/je9004036).
Where “and” joins values, the source holds several entries; their conditions need not be identical. Equal values may be shown once.

How the values were obtained:
[1] = for vapor or sublimation pressure: Liquid, Calculated from knudsen effusion weight loss; for Normal melting temperature: Crystal, DTA
[2] = Molar enthalpy of transition or fusion; conditions: Crystal 1; DSC

COc1cccc(C(=O)O)c1N [2-amino-3-methoxybenzoic acid]
[1]
Conditions | vapor or sublimation pressure
349.12 K | 0.000123 kPa and 0.000121 kPa
351.18 K | 0.000152 kPa and 0.00015 kPa and 0.000149 kPa
353.19 K | 0.000194 kPa and 0.000186 kPa and 0.000183 kPa
355.13 K | 0.000235 kPa and 0.000232 kPa and 0.000234 kPa
357.18 K | 0.000297 kPa and 0.000285 kPa and 0.000283 kPa
359.12 K | 0.000362 kPa and 0.000356 kPa and 0.000355 kPa
360.13 K | 0.000407 kPa and 0.000404 kPa and 0.0004 kPa
361.16 K | 0.000446 kPa and 0.000437 kPa and 0.000431 kPa
363.18 K | 0.000552 kPa and 0.000537 kPa and 0.000527 kPa
367.18 K | 0.000847 kPa and 0.000823 kPa and 0.000808 kPa
369.18 K | 0.001031 kPa and 0.001004 kPa and 0.000983 kPa

Conditions | Molar enthalpy of transition or fusion [kcal/mol] | Normal melting temperature [°C]
[1] | – | 169.86
[2] | 5.79 | –

COc1cc(N)cc(C(=O)O)c1 [3-amino-5-methoxybenzoic acid]
[1]
Conditions | vapor or sublimation pressure
380.16 K | 0.000125 kPa and 0.000123 kPa
381.19 K | 0.000138 kPa and 0.000135 kPa and 0.000131 kPa
383.18 K | 0.000174 kPa and 0.000164 kPa and 0.000156 kPa
385.16 K | 0.000201 kPa and 0.000217 kPa and 0.000208 kPa
387.2 K | 0.000269 kPa and 0.000253 kPa and 0.000242 kPa
389.16 K | 0.000325 kPa and 0.000316 kPa and 0.000301 kPa
393.19 K | 0.000511 kPa and 0.00049 kPa and 0.000473 kPa
395.18 K | 0.000631 kPa and 0.000591 kPa and 0.00057 kPa
397.18 K | 0.000773 kPa
399.19 K | 0.000917 kPa and 0.000887 kPa and 0.000862 kPa
400.18 K | 0.001003 kPa and 0.00094 kPa and 0.000926 kPa

Conditions | Molar enthalpy of transition or fusion [kcal/mol] | Normal melting temperature [°C]
[1] | – | 183.79
[2] | 5.35 | –

COc1cc(C(=O)O)ccc1N [4-amino-3-methoxybenzoic acid]
[1]
Conditions | vapor or sublimation pressure
373.14 K | 0.000103 kPa and 0.000102 kPa
375.15 K | 0.00013 kPa and 0.000127 kPa and 0.000126 kPa
377.18 K | 0.000163 kPa and 0.000156 kPa and 0.000153 kPa
379.17 K | 0.000192 kPa and 0.000186 kPa and 0.000196 kPa
381.17 K | 0.00025 kPa and 0.00024 kPa and 0.000232 kPa
383.18 K | 0.000301 kPa
385.16 K | 0.000384 kPa and 0.000376 kPa and 0.000374 kPa
387.17 K | 0.000476 kPa and 0.000455 kPa and 0.000444 kPa
389.16 K | 0.000587 kPa and 0.000573 kPa and 0.00057 kPa
391.17 K | 0.000724 kPa and 0.000696 kPa and 0.000678 kPa
393.17 K | 0.000864 kPa and 0.000841 kPa and 0.000826 kPa
395.17 K | 0.001037 kPa and 0.001005 kPa and 0.000971 kPa

Conditions | Molar enthalpy of transition or fusion [kcal/mol] | Normal melting temperature [°C]
[1] | – | 189.20
[2] | 6.04 | –

COc1ccc(N)c(C(=O)O)c1 [2-amino-5-methoxybenzoic acid]
[1]
Conditions | vapor or sublimation pressure
353.13 K | 0.0001 kPa and 0.000101 kPa
355.15 K | 0.000131 kPa and 0.000128 kPa and 0.00013 kPa
357.2 K | 0.000159 kPa and 0.000158 kPa
359.18 K | 0.000202 kPa and 0.000196 kPa and 0.000195 kPa
361.15 K | 0.000251 kPa and 0.000249 kPa and 0.000252 kPa
363.2 K | 0.000316 kPa and 0.000304 kPa and 0.000306 kPa
365.18 K | 0.000384 kPa and 0.000376 kPa
367.16 K | 0.000479 kPa and 0.000458 kPa and 0.000447 kPa
369.18 K | 0.000577 kPa and 0.000562 kPa and 0.000553 kPa
371.14 K | 0.000723 kPa and 0.000704 kPa and 0.000716 kPa
373.17 K | 0.000898 kPa and 0.000864 kPa and 0.000856 kPa
375.17 K | 0.001076 kPa and 0.001049 kPa and 0.001039 kPa

Conditions | Molar enthalpy of transition or fusion [kcal/mol] | Normal melting temperature [°C]
[1] | – | 151.81
[2] | 5.47 | –

COc1ccc(C(=O)O)cc1N [3-amino-4-methoxybenzoic acid]
[1]
Conditions | vapor or sublimation pressure
379.67 K | 0.00014 kPa and 0.000138 kPa and 0.000135 kPa
381.72 K | 0.000174 kPa and 0.000169 kPa and 0.000164 kPa
383.68 K | 0.000215 kPa and 0.000205 kPa and 0.000199 kPa
385.16 K | 0.000247 kPa and 0.000252 kPa
387.19 K | 0.000306 kPa and 0.000298 kPa and 0.00029 kPa
389.18 K | 0.000382 kPa and 0.000363 kPa and 0.000353 kPa
391.17 K | 0.000455 kPa
393.21 K | 0.000568 kPa and 0.000557 kPa and 0.000536 kPa
395.18 K | 0.000698 kPa and 0.000676 kPa
397.2 K | 0.000832 kPa and 0.000811 kPa and 0.000786 kPa
399.18 K | 0.001028 kPa and 0.000967 kPa and 0.000941 kPa

Conditions | Molar enthalpy of transition or fusion [kcal/mol] | Normal melting temperature [°C]
[1] | – | 204.72
[2] | 6.06 | –
